Assay results from US20240150293A1, “SPIROCYCLOHEXANE DERIVATIVES, PHARMACEUTICAL COMPOSITIONS CONTAINING THEM AND THEIR USES AS ANTI-APOPTOTIC INHIBITORS” (LES LABORATOIRES SERVIER, priority 2021, published 2024).
pIC50, pKi: −log10 of the molar value. Read-outs that look alike come from different tables or passages of the source.

Experiments:
NCI-H929 cell lines = assay: In vitro cytotoxicity, CellTiter-Glo (CTG) assay (Example B, Method B); type: cell-based; conditions: NCI-H929 cells, 48 h incubation, read-out: C50
Experimental: Cellular viability was monitored with the cell viability assay (Cell Titer-Glo®) on NCI-H929 cell lines. The CellTiter-Glo® (CTG) Luminescent Cell Viability Assay (from Promega) is a homogeneous method to determine the number of viable cells in culture based on quantitation of the ATP present, which signals the presence of metabolically active cells.
Concentration response of test compounds are performed with 10 mM stock solutions (DMSO), 11-points curve, in a 384-well compound plate. The assay plate is prepared by stamping 120 nL from compound dilution plate of all different concentrations (e.g. 10 mM to have final 30 μM assay test) into a cell culture microplate, using Echo acoustic liquid handling (Labcyte, Beckman). 40 μl of cell solution is added and cells are incubated with compounds for 48 h at 37° C., 5% CO2. CTG was added to the cells (according to the manufacturer instructions) and luminescence intensity was recorded using the Pherastar plate reader (BMG).
This assay provides in vitro cellular efficacy of compounds of Formula (I) tested, measuring the C50, defined as the concentration needed to reach 50% of the cellular viability.

[1] = molecular target: Cy5-labelled Mcl1 (amino acids 171-321) C286S protein (UniProtKB Q07820) (Homo sapiens (Human), UniProt Q07820, C286S); assay: Inhibition of Mcl-1 by the fluorescence quenching assay (Example A, Method B); type: binding
Cy5-labelled Mcl1 (amino acids 171-321) C286S protein, sequence (Q07820 171-321 C286S): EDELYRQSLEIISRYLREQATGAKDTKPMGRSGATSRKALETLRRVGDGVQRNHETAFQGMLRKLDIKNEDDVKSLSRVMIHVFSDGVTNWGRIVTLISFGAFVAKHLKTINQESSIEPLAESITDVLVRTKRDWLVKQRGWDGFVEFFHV
Procedure, shortened: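 Cy5-labelled Mcl1 171-321 C286S (1 nM) quenched by TQ5WS-labelled PUMA peptide (10, 20 or 400 nM); displacement raises fluorescence (Ex 620/Em 680 nm). Buffer 10 mM HEPES, 150 mM NaCl, 0.05% Tween 20, pH 7.4, 5% DMSO; 2 h at room temperature, 11-point curves, IC50 converted to Ki (cKi/eKi).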

SMILES | pKi [1] | inhibition at 1 µM ([1]; @ 1 μM, read-out: Mcl-1 inhibition, % at a single concentration) | pIC50 (NCI-H929 cell lines; Homo sapiens, NCI-H929, 48 h) | pIC50 (NCI-H929 cell lines)
C[C@@H](COc1ccnc2c1[C@H](C)CC[C@H]2C)C[C@H]1Cc2cc3c(cc2[C@]12CC[C@@](Nc1cccc(Cl)c1)(C(=O)O)CC2)OCO3 [Example 960, (1r,4S,6′S)-4-(3-chloroanilino)-6′-[(2R)-3-{[(5R,8R)-5,8-dimethyl-5,6,7,8-tetrahydroquinolin-4-yl]oxy}-2-methylpropyl]-6′,7′-dihydro-2′H-spiro[cyclohexane-1,5′-indeno[5,6-d][1,3]dioxole]-4-carboxylic acid] | 10.08 |  | 7.11 | 
C[C@@H](COc1ccnc2c1[C@H](C)CCC2)C[C@H]1Cc2ccc(OC3CCCC3)cc2[C@]12CC[C@@](Nc1cccc(Cl)c1)(C(=O)O)CC2 [Example 789, (1r,2′S,4S)-4-(3-chloroanilino)-6′-(cyclopentyloxy)-2′-[(2R)-2-methyl-3-{[(5R)-5-methyl-5,6,7,8-tetrahydroquinolin-4-yl]oxy}propyl]-2′,3′-dihydrospiro[cyclohexane-1,1′-indene]-4-carboxylic acid] | 9.87 |  | 6.57 | 
COc1ccccc1-c1ccc2c(c1)[C@]1(CC[C@@](Nc3cccc(Cl)c3)(C(=O)O)CC1)[C@@H](C[C@@H](C)COc1ccnc3c1[C@H](C)CCC3)C2 [Example 876, (1r,2′S,4S)-4-(3-chloroanilino)-6′-(2-methoxyphenyl)-2′-[(2R)-2-methyl-3-{[(5R)-5-methyl-5,6,7,8-tetrahydroquinolin-4-yl]oxy}propyl]-2′,3′-dihydrospiro[cyclohexane-1,1′-indene]-4-carboxylic acid] | 9.40 |  | 6.51 | 
C[C@@H](COc1ccnc2c1[C@H](C)CCC2)C[C@H]1Cc2cc3c(cc2[C@]12CC[C@@](Nc1cccc(Cl)c1)(C(=O)O)CC2)OCC(F)(F)CO3 [Example 996, (1r,4S,8′S)-4-(3-chloroanilino)-3′,3′-difluoro-8′-[(2R)-2-methyl-3-{[(5R)-5-methyl-5,6,7,8-tetrahydroquinolin-4-yl]oxy}propyl]-3′,4′,8′,9′-tetrahydro-2′H-spiro[cyclohexane-1,7′-indeno[5,6-b][1,4]dioxepine]-4-carboxylic acid] | 10.55 |  | 7.07 | 
C[C@@H](COc1ccnc2c1[C@H](C)CC[C@H]2O)C[C@H]1Cc2cc3c(cc2[C@]12CC[C@@](Nc1cccc(Cl)c1)(C(=O)O)CC2)OCO3 [Example 959, (1r,4S,6′S)-4-(3-chloroanilino)-6′-[(2R)-3-{[(5R,8R)-8-hydroxy-5-methyl-5,6,7,8-tetrahydroquinolin-4-yl]oxy}-2-methylpropyl]-6′,7′-dihydro-2′H-spiro[cyclohexane-1,5′-indeno[5,6-d][1,3]dioxole]-4-carboxylic acid] | 10.93 |  | 7.54 | 
C[C@@H](COc1ccnc2c1[C@H](C)CCC2)C[C@H]1Cc2cc3c(cc2[C@]12CC[C@@](Nc1ccc(Cl)c(Cl)c1)(C(=O)O)CC2)OCO3 [Example 887, (1r,4S,6′S)-4-(3,4-dichloroanilino)-6′-[(2R)-2-methyl-3-{[(5R)-5-methyl-5,6,7,8-tetrahydroquinolin-4-yl]oxy}propyl]-6′,7′-dihydro-2′H-spiro[cyclohexane-1,5′-indeno[5,6-d][1,3]dioxole]-4-carboxylic acid] | 9.53 |  | 6.82 | 
CCC(=O)OC(C)OC(=O)[C@]1(Nc2cccc(Cl)c2)CC[C@@]2(CC1)c1cc3c(cc1C[C@@H]2C[C@@H](C)COc1ccnc2c1[C@H](C)CCC2)OCO3 (stereo partly drawn) [Example 940, 1-(propanoyloxy)ethyl (1r,4S,6′S)-4-(3-chloroanilino)-6′-[(2R)-2-methyl-3-{[(5R)-5-methyl-5,6,7,8-tetrahydroquinolin-4-yl]oxy}propyl]-6′,7′-dihydro-2′H-spiro[cyclohexane-1,5′-indeno[5,6-d][1,3]dioxole]-4-carboxylate] | 8.60 |  | 6.58 | 
C[C@@H](COc1ccnc2c1[C@H](C)CCC2)C[C@H]1Cc2ccccc2[C@]12CC[C@@](Nc1ccc(Cl)c(Cl)c1)(C(=O)O)CC2 [Example 715, (1r,2′S,4S)-4-(3,4-dichloroanilino)-2′-[(2R)-2-methyl-3-{[(5R)-5-methyl-5,6,7,8-tetrahydroquinolin-4-yl]oxy}propyl]-2′,3′-dihydrospiro[cyclohexane-1,1′-indene]-4-carboxylic acid] | 8.70 |  | 5.89 | 
CC1CCNc2nccc(OC[C@H](C)C[C@H]3Cc4ccccc4[C@]34CC[C@@](Nc3cccc(Cl)c3)(C(=O)O)CC4)c21 (single isomer, unassigned) [Example 642] | 9.14 |  |  | 6.34
Cc1oc(=O)oc1COC(=O)[C@]1(Nc2cccc(Cl)c2)CC[C@@]2(CC1)c1cc3c(cc1C[C@@H]2C[C@@H](C)COc1ccnc2c1[C@H](C)CCC2)OCO3 [Example 938, (5-methyl-2-oxo-2H-1,3-dioxol-4-yl)methyl (1r,4S,6′S)-4-(3-chloroanilino)-6′-[(2R)-2-methyl-3-{[(5R)-5-methyl-5,6,7,8-tetrahydroquinolin-4-yl]oxy}propyl]-6′,7′-dihydro-2′H-spiro[cyclohexane-1,5′-indeno[5,6-d][1,3]dioxole]-4-carboxylate] | 8.61 |  | 7.35 | 
CCN(CC)C(=O)OCOC(=O)[C@]1(Nc2cccc(Cl)c2)CC[C@@]2(CC1)c1cc3c(cc1C[C@@H]2C[C@@H](C)COc1ccnc2c1[C@H](C)CCC2)OCO3 [Example 950, [(diethylcarbamoyl)oxy]methyl (1r,4S,6′S)-4-(3-chloroanilino)-6′-[(2R)-2-methyl-3-{[(5R)-5-methyl-5,6,7,8-tetrahydroquinolin-4-yl]oxy}propyl]-6′,7′-dihydro-2′H-spiro[cyclohexane-1,5′-indeno[5,6-d][1,3]dioxole]-4-carboxylate] |  | 7.1% | < 4.52 | 

Now from value to molecule, other results behind:

pKi [1] | inhibition at 1 µM ([1]; @ 1 μM, read-out: Mcl-1 inhibition, % at a single concentration) | SMILES | pIC50 (NCI-H929 cell lines; Homo sapiens, NCI-H929, 48 h) | pIC50 (NCI-H929 cell lines)
9.48 |  | CCOc1cc2c(cc1C)CC(C[C@@H](C)COc1ccnc3c1[C@H](C)CCC3)[C@]21CC[C@](Nc2cccc(Cl)c2)(C(=O)O)CC1 (stereo partly drawn) [Example 824, (1r,4R)-4-(3-chloroanilino)-6′-ethoxy-5′-methyl-2′-[(2R)-2-methyl-3-{[(5R)-5-methyl-5,6,7,8-tetrahydroquinolin-4-yl]oxy}propyl]-2′,3′-dihydrospiro[cyclohexane-1,1′-indene]-4-carboxylic acid] | 6.38 | 
9.91 |  | C[C@@H](COc1ccnc2c1[C@H](C)CCC2)C[C@H]1Cc2ccc(OCC3CC3)cc2[C@]12CC[C@@](Nc1cccc(Cl)c1)(C(=O)O)CC2 [Example 791, (1r,2′S,4S)-4-(3-chloroanilino)-6′-(cyclopropylmethoxy)-2′-[(2R)-2-methyl-3-{[(5R)-5-methyl-5,6,7,8-tetrahydroquinolin-4-yl]oxy}propyl]-2′,3′-dihydrospiro[cyclohexane-1,1′-indene]-4-carboxylic acid] | 6.72 | 
10.79 |  | C[C@@H](COc1ccnc2c1[C@H](C)CCC2)C[C@H]1Cc2cc3c(cc2[C@]12CC[C@@](Nc1cccc(Cl)c1)(C(=O)O)CC2)O[C@H](C)[C@@H](C)O3 [Example 976, (1r,2′R,3′R,4S,7′S)-4-(3-chloroanilino)-2′,3′-dimethyl-7′-[(2R)-2-methyl-3-{[(5R)-5-methyl-5,6,7,8-tetrahydroquinolin-4-yl]oxy}propyl]-2′,3′,7′,8′-tetrahydrospiro[cyclohexane-1,6′-indeno[5,6-b][1,4]dioxine]-4-carboxylic acid] | 7.14 | 
10.09 |  | C[C@@H](COc1ccnc2c1[C@H](C)CCC2)C[C@H]1Cc2cccc(F)c2[C@]12CC[C@@](Nc1cccc(Cl)c1)(C(=O)O)CC2 [Example 763, (1r,2′S,4S)-4-(3-chloroanilino)-7′-fluoro-2′-[(2R)-2-methyl-3-{[(5R)-5-methyl-5,6,7,8-tetrahydroquinolin-4-yl]oxy}propyl]-2′,3′-dihydrospiro[cyclohexane-1,1′-indene]-4-carboxylic acid] | 6.93 | 
9.75 |  | C[C@@H](COc1ccnc2c1[C@H](C)CCC2)C[C@H]1Cc2cc(Cl)ccc2[C@]12CC[C@@](Nc1cccc(Cl)c1)(C(=O)O)CC2 [Example 778, (1r,2′S,4S)-5′-chloro-4-(3-chloroanilino)-2′-[(2R)-2-methyl-3-{[(5R)-5-methyl-5,6,7,8-tetrahydroquinolin-4-yl]oxy}propyl]-2′,3′-dihydrospiro[cyclohexane-1,1′-indene]-4-carboxylic acid] | 7.17 | 
9.60 |  | COc1ccc2c(c1)[C@]1(CC[C@@](Nc3cccc(Cl)c3)(C(=O)O)CC1)[C@H](C[C@@H](C)COc1ccnc3c1[C@H](C)CCC3)C2 [Example 782, (1r,2′R,4R)-4-(3-chloroanilino)-6′-methoxy-2′-[(2R)-2-methyl-3-{[(5R)-5-methyl-5,6,7,8-tetrahydroquinolin-4-yl]oxy}propyl]-2′,3′-dihydrospiro[cyclohexane-1,1′-indene]-4-carboxylic acid] | 6.63 | 
10.12 |  | CCCC1COc2cc3c(cc2OC1)[C@]1(CC[C@@](Nc2cccc(Cl)c2)(C(=O)O)CC1)[C@@H](C[C@@H](C)COc1ccnc2c1[C@H](C)CCC2)C3 (single isomer, unassigned) [Example 991] |  | 6.79
